The source of these data is US20250250284A1, “MACROCYCLE COMPOUNDS USEFUL AS KRAS INHIBITORS” (Hoffmann-La Roche Inc., priority 2022, published 2025).

One assay concerns NCI-H358 cells. Briefly: Cell viability assay (Cell Counting Kit-8), KRAS G12C. The assay is classed as cell-based. As to conditions: Homo sapiens, 72 hrs incubation, CCK-8. The protocol:
(§1) The purpose of this cellular assay was to determine the effects of test compounds on the proliferation of human cancer cell lines NCI-H358 (ATCC-CRL5807) cells, AGS (ATCC-CRL-1739) cells, SW620 (ATCC-CCL-227) over a 3-day treatment period by quantifying the amount of NADPH present at endpoint using Cell Counting Kit-8.
(§2) Cells were seeded at 5,000 cells/well (NCI-H358), 2,000 cells/well (AGS) 2,000 cells/well (SW620) in 96-well assay plates (Corning-3699) and incubated overnight. On the day of the assay, diluted compounds were then added in a final concentration of 0.5% DMSO. After 72 hrs incubation, a tenth of the volume of cell counting kit 8 (Dnjindo-CK04) was added into each well. Read the signal (OD450 minus OD650) using EnVision after 2 hrs incubation. IC50 was determined by fitting a 4-parameter sigmoidal concentration response model.
Background: Tetrazolium assays rely on reduction of a dye to a coloured formazan, in cell work by metabolically active cells.

The subject of a further assay is AGS cells. Nature of the assay: Cell viability assay (Cell Counting Kit-8), KRAS G12D. The settings on record: Homo sapiens, 72 hrs incubation, CCK-8. The assay is classed as cell-based. The protocol: as §1, §2
Another assay concerns SW620 cells. Nature of the assay: Cell viability assay (Cell Counting Kit-8), KRAS G12V. Type of assay: cell-based. As to conditions: Homo sapiens, SW-620, 72 hrs incubation, CCK-8. The protocol:
as §1, §2

For another assay, the target named is KRAS G12C-BRAF complex (Homo sapiens (Human), UniProt P01116+P62937, G12C). Briefly: KRAS-BRAF with CYPA (500 nM) interaction assay (TR-FRET), G12C. Type of assay: binding. As to conditions: GMPPNP loaded 6His-KRAS, GST-BRAF RBD, 3 hours. The protocol:
(§3) KRAS-BRAF with CYPA (500 nM) Interaction Assay
(§4) In this example, TR-FRET was also used to measure the compound or compound-CYPA dependent disruption of the KRAS G12C-BRAF complex. This protocol was also used to measure disruption of KRAS G12D or KRAS G12V binding to BRAF by a compound of the invention, respectively. In assay buffer containing 25 mM HEPES PH=7.4 (4-(2-hydroxyethyl)-1-piperazineethanesulfonic acid, Thermo, 15630080), 0.002% Tween20, 0.1% BSA, 100 mM NaCl, 5 mM MgCl2, 10 μM GMPPNP (Guanosine 5′-[β,γ-imido]triphosphate trisodium salt hydrate, Sigma, G0635), tagless CYPA, GMPPNP loaded 6His-KRAS proteins, and GST-BRAF^RBD were mixed in a well of a 384-well assay plate at final concentrations of 50 nM, 6.25 nM and 1 nM, respectively. Compound was present in plate wells as a 16-point 3-fold dilution series starting at a final concentration of 10 μM and incubated for 3 hours. A mixture of MAb Anti-6His-XL665 (Cisbio, 61HISXLB) and Mab anti-GST-TB cryptate (Cisbio, 61GSTTLB) was then added at a final concentration of 6.67 nM and 0.21 nM, respectively, and the plate was incubated for an additional 1.5 hours. TR-FRET signal was read on a PHERstar FSX microplate reader (Ex320 nm, Em 665/615 nm). Compounds that facilitate disruption of the KRAS-BRAF complex were identified as those eliciting a decrease in the TR-FRET ratio relative to DMSO control wells.
(In general: TR-FRET usually uses a lanthanide donor and a delayed reading to cut background.)

Assay [1] has as its target KRAS G12D binding to BRAF (Homo sapiens (Human), UniProt P01116+P62937, G12D). Nature of the assay: KRAS-BRAF with CYPA (500 nM) interaction assay (TR-FRET), G12D. The settings on record: GMPPNP loaded 6His-KRAS, GST-BRAF RBD, 3 hours. As to the method: as §3, §4
Assay [2] addresses KRAS G12V binding to BRAF (Homo sapiens (Human), UniProt P01116+P62937, G12V). Briefly: KRAS-BRAF with CYPA (500 nM) interaction assay (TR-FRET), G12V. As to conditions: GMPPNP loaded 6His-KRAS, GST-BRAF RBD, 3 hours. The protocol: as §3, §4
Assay [3] has as its system phosphorylation of ERK, KRAS G12C in NCI-H358 cells. Briefly: pERK inhibition assay, KRAS G12C. Type of assay: cell-based. The settings on record: Homo sapiens, 4 hours of incubation. The protocol: (§5) This assay is to measure the ability of test compounds in inhibiting the phosphorylation of ERK, the downstream signaling of KRAS G12C in NCI-H358 cells, KRAS G12D in AGS cells, and KRAS G12V in SW620. NCI-H358 (ATCC-CRL5807) cells, AGS (ATCC-CRL-1739) cells, SW620 (ATCC-CCL-227) cells were all grown and maintained using RPMI-1640 medium (Thermo Fisher Scientific) with 10% fetal bovine serum and 1% penicillin/streptomycin. On the day prior to compound addition, cells were plated in tissue culture-treated 96 well plates (Corning-3699) at a density of 30,000 cell/well, 20,000 cell/well, 30,000 cell/well for NCI-H358, AGS and SW620 respectively, and allowed for attachment overnight. Diluted compounds were then added in a final concentration of 0.5% DMSO. After 4 hours of incubation, the medium was removed, 100 μL of 4% formaldehyde was added, and the assay plates were incubated at room temperature for 20 minutes. The plates were then washed once with phosphate buffered saline (PBS), and permeabilized with 100 μL of chilled methanol for 10 minutes. Non-specific antibody binding to the plates was blocked using 50 μL 1×BSA blocking buffer (Thermo-37520, 10-fold dilution by Phosphate-Buffered Saline Tween (PBST) for at least 1 hour at room temperature.
(§6) The amount of phosphor-ERK was determined using an antibody specific for phosphorylated form of ERK. Primary antibody (pERK, CST-4370, Cell Signaling Technology) was diluted 1:300 in blocking buffer, with 50 μL aliquoted to each well, and incubated overnight at 4° C. Cells was washed five times for 5 minutes with PBST. Secondary antibody (HRP-linked anti-rabbit IgG, CST-7074, Cell Signaling Technology) was diluted 1:1000 in blocking buffer, and 50 μL was added to each well and incubated 1-2 hrs at room temperature. Cells was washed 5 times for 5 minutes with PBST, 100 μL TMB ELISA substrate (abcam-ab171523) were added and gently shake for 20 minutes. 50 μL stop solution (abcam-ab171529) were added, and then read the signal (OD450) by EnVision.
(§7) IC50 was determined by fitting a 4-parameter sigmoidal concentration response model.

Assay [4] deals with phosphorylation of ERK, KRAS G12D in AGS cells. Nature of the assay: pERK inhibition assay, KRAS G12D. The assay is classed as cell-based. As to conditions: Homo sapiens, 4 hours of incubation. As to the method: as §5, §6, §7
For assay [5], the system named is phosphorylation of ERK, KRAS G12V in SW620. Nature of the assay: pERK inhibition assay, KRAS G12V. The assay is classed as cell-based. As to conditions: Homo sapiens, SW-620; SW620 cells, 4 hours of incubation. As to the method:
as §5, §6, §7

Chain of KRAS G12D binding to BRAF (P01116-2 other isoform, or with tags, fused parts or gaps G12D): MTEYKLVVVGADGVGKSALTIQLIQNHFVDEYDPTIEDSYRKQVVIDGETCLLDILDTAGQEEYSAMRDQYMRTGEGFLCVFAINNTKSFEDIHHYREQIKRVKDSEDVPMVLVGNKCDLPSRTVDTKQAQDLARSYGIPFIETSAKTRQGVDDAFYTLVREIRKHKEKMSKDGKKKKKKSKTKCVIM
Chain of KRAS G12D binding to BRAF (P62937 whole entry): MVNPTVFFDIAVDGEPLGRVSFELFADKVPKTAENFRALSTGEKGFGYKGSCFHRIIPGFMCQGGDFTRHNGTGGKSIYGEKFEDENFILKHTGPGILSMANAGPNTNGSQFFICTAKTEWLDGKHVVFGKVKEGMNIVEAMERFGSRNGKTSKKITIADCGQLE
Chain of KRAS G12V binding to BRAF (P01116-2 other isoform, or with tags, fused parts or gaps G12V): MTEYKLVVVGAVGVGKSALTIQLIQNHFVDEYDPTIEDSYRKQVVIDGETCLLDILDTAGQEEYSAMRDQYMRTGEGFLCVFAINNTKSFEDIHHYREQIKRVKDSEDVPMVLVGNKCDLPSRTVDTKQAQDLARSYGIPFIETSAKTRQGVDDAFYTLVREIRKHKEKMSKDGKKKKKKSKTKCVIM
Chain of KRAS G12V binding to BRAF (P62937 whole entry): as the sequence (P62937 whole entry) above
Chain of KRAS G12C-BRAF complex (P01116-2 other isoform, or with tags, fused parts or gaps G12C): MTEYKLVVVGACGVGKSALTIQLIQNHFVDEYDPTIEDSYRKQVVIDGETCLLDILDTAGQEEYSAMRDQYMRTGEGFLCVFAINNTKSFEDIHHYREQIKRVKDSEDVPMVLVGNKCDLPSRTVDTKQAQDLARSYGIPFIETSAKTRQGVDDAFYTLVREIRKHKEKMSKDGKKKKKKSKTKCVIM
Chain of KRAS G12C-BRAF complex (P62937 whole entry): as the sequence (P62937 whole entry) above

As a reminder, the IC50 is the concentration that inhibits the measured activity by half. Turning to `CCn1c(-c2cc(N3CCN(C)CC3)cnc2[C@H](C)OC)c2c3cc(c(F)cc31)-c1csc(n1)C[C@H](NC(=O)[C@H]1C[C@@H]1C)C(=O)N1CCC[C@H](N1)C(=O)OCC(C)(C)C2` (atropisomer, axis not shown; (M)) [Example 1, (1S,2S)—N-[(7S,13S)-21-ethyl-24-fluoro-(20M)-20-[2-[(1S)-1-methoxyethyl]-5-(4-methylpiperazin-1-yl)-3-pyridyl]-17,17-dimethyl-8,14-dioxo-15-oxa-4-thia-9,21,27,28-tetrazapentacyclo[17.5.2.1^2,5.1^9,13.0^22,26]octacosa-1(25),2,5(28),19,22(26),23-hexaen-7-yl]-2-methyl-cyclopropanecarboxamide], the IC50 with NCI-H358 cells was determined as 0.018 µM; in the assay on AGS cells it was 4.63 µM; in the assay on SW620 cells, 0.009 µM; against KRAS G12C-BRAF complex, 0.108 µM; in assay [1], 0.915 µM; in assay [2] it was 0.211 µM. Moreover, the IC50 in assay [3] was determined as 0.011 µM; in assay [4] it was 0.034 µM; in assay [5], 0.004 µM.

As to `CCn1c(-c2cc(N3CCN(C)CC3)cnc2[C@H](C)OC)c2c3cc(c(F)cc31)-c1csc(n1)C[C@H](NC(=O)[C@H]1[C@@H]3COC[C@@H]31)C(=O)N1CCC[C@H](N1)C(=O)OCC(C)(C)C2` (atropisomer, axis not shown; (M)) [Example 2, (1R,5S)—N-[(7S,13S)-21-ethyl-24-fluoro-(20M)-20-[2-[(1S)-1-methoxyethyl]-5-(4-methylpiperazin-1-yl)-3-pyridyl]-17,17-dimethyl-8,14-dioxo-15-oxa-4-thia-9,21,27,28-tetrazapentacyclo[17.5.2.1^2,5.1^9,13.0^22,26]octacosa-1(25),2,5(28),19,22(26),23-hexaen-7-yl]-3-oxabicyclo[3.1.0]hexane-6-carboxamide], the IC50 with NCI-H358 cells was 0.011 µM; with AGS cells, 0.059 µM; with SW620 cells, 0.005 µM; at KRAS G12C-BRAF complex, 0.134 µM; in [1] it was 0.957 µM; in [2] it was 0.174 µM. Besides, the IC50 was 0.009 µM in assay [3], 0.018 µM in assay [4] and 0.003 µM in assay [5].

Take `CCn1c(-c2cc(N3CCOCC3)cnc2[C@H](C)OC)c2c3cc(c(F)cc31)-c1csc(n1)C[C@H](NC(=O)[C@H]1C[C@@H]1C(F)F)C(=O)N1CCC[C@H](N1)C(=O)OCC(C)(C)C2` (atropisomer, axis not shown; (M)) [Example 11, (1S,2S)-2-(difluoromethyl)-N-[(7S,13S)-21-ethyl-24-fluoro-(20M)-20-[2-[(1S)-1-methoxyethyl]-5-morpholino-3-pyridyl]-17,17-dimethyl-8,14-dioxo-15-oxa-4-thia-9,21,27,28-tetrazapentacyclo[17.5.2.1^2,5.1^9,13.0^22,26]octacosa-1(25),2,5(28),19,22(26),23-hexaen-7-yl]cyclopropanecarboxamide]: the 50% inhibitory concentration (IC50) is 0.005 µM with NCI-H358 cells; 0.111 µM with AGS cells; 0.007 µM with SW620 cells; 0.021 µM in assay [3]; 0.028 µM in assay [4]; 0.007 µM in [5].

With `CO[C@@H](C)c1ncc(N2CCOCC2)cc1-c1c2c3cc(c(F)cc3n1CC(F)(F)F)-c1csc(n1)C[C@H](NC(=O)[C@H]1C[C@@H]1C)C(=O)N1CCC[C@H](N1)C(=O)OCC(C)(C)C2` (atropisomer, axis not shown; (M)) [Example 12, (1S,2S)—N-[(7S,13S)-24-fluoro-(20M)-20-[2-[(1S)-1-methoxyethyl]-5-morpholino-3-pyridyl]-17,17-dimethyl-8,14-dioxo-21-(2,2,2-trifluoroethyl)-15-oxa-4-thia-9,21,27,28-tetrazapentacyclo[17.5.2.1^2,5.1^9,13.0^22,26]octacosa-1(25),2,5(28),19,22(26),23-hexaen-7-yl]-2-methyl-cyclopropanecarboxamide], the half-maximal inhibitory concentration (IC50) with NCI-H358 cells came out at 0.011 µM; with AGS cells it was 0.244 µM; in the assay on SW620 cells, 0.016 µM; in assay [3] it was 0.033 µM; in [4] it was 0.053 µM; in assay [5] it was 0.009 µM.

Regarding `CCn1c(-c2cc(N3CCN(C)CC3)cnc2[C@H](C)OC)c2c3cc(c(F)cc31)-c1csc(n1)C[C@H](NC(=O)[C@H]1C[C@@H]1C#N)C(=O)N1CCC[C@H](N1)C(=O)OCC(C)(C)C2` [Example 5, (1S,2S)-2-cyano-N-[(7S,13S)-21-ethyl-24-fluoro-(20M)-20-[2-[(1S)-1-methoxyethyl]-5-(4-methylpiperazin-1-yl)-3-pyridyl]-17,17-dimethyl-8,14-dioxo-15-oxa-4-thia-9,21,27,28-tetrazapentacyclo[17.5.2.1^2,5.1^9,13.0^22,26]octacosa-1(25),2,5(28),19,22(26),23-hexaen-7-yl]cyclopropanecarboxamide], the IC50 stood at 0.023 µM with NCI-H358 cells; 0.089 µM with AGS cells; 0.012 µM in the assay on SW620 cells; 0.057 µM in [3]; 0.056 µM in [4]; 0.013 µM in [5].

With `CCn1c(-c2cc(N3CCN(C)CC3)cnc2[C@H](C)OC)c2c3cc(c(F)cc31)-c1csc(n1)C[C@H](NC(=O)[C@@H]1C[C@H]1C#N)C(=O)N1CCC[C@H](N1)C(=O)OCC(C)(C)C2` [Example 6, (1R,2R)-2-cyano-N-[(7S,13S)-21-ethyl-24-fluoro-(20M)-20-[2-[(1S)-1-methoxyethyl]-5-(4-methylpiperazin-1-yl)-3-pyridyl]-17,17-dimethyl-8,14-dioxo-15-oxa-4-thia-9,21,27,28-tetrazapentacyclo[17.5.2.1^2,5.1^9,13.0^22,26]octacosa-1(25),2,5(28),19,22(26),23-hexaen-7-yl]cyclopropanecarboxamide], the IC50 turned out to be 0.079 µM in the assay on NCI-H358 cells; 0.316 µM in the assay with AGS cells; 0.035 µM in the assay on SW620 cells; 0.079 µM in [3]; 0.116 µM in assay [4]; 0.025 µM in assay [5].
